# Laboratory results reported in US10308595B2, “Albicidin derivatives, their use and synthesis” (priority 2013, dated 2019).
# System: Escherichia coli strains expressing albicidin resistance determinants (DH5aAlbr, albD, alb14, alb19, sbmC)
# Assay: Microbiological assay (Zhang et al.) for cross-resistance
# Format: cell-based
# Conditions: synthetic versus natural albicidin, FIG. 11
# Excerpt: The microbiological assay described by Zhang et al., (J Appl Microbiol., 1998, 85, 1023-8) was used to study cross-resistance between synthetic albicidin (10) and the natural product albicidin purified from albicidin heterologous host developed by Vivien et al. (Antimicrob Agents Chemother., 2007, 51, 1549-52). Several Escherichia coli strains expressing a wide range of albicidin resistance determinants were used for this microbiological bioassay: strain DH5aAlbr (a spontaneous albicidin-resistant DH5a derivative; Rott et al., (J. Bacteriol., 1996, 178, 4590-4596.) and strains harboring albD (an albicidin-detoxifying gene, Zhang and Birch (Proc. Natl. Acad. Sci. USA, 1997, 94, 9984-9989.), alb14 (an albicidin efflux pump gene conferring albicidin resistance in E. coli, Bostock et al., (J. Appl. Microbiol., 2006, 101, 151-160.), alb19 (a McbG gene conferring albicidin resistance in E. coli, Hashimi et al. (Antimicrob. Agents Chemother., 2007, 51, 181-187.), or sbmC (a microcin B17 resistance gene, Baquero et al. (Mol. Microbiol., 1995, 18, 301-311.).
smiles,measurement,value
"COc1c(NC(=O)c2ccc(NC(=O)c3ccc(NC(=O)[C@H](CC#N)NC(=O)c4ccc(NC(=O)/C(C)=C/c5ccc(O)cc5)cc4)cc3)c(OC)c2O)ccc(C(=O)O)c1O [synthetic albicidin (10), (S,E)-4-(4-(4-(3-cyano-2-(4-(3-(4-hydroxyphenyl)-2-methylacrylamido)benzamido)propanamido)benzamido)-2-hydroxy-3-methoxybenzamido)-2-hydroxy-3-methoxybenzoic acid]",resistance pattern (cross-resistance) in albicidin-resistant E. coli strains,exactly the same
